Tests used:
Type in all cases: biochemical
Met-1 = target: T1, Met-1 (Homo sapiens, UniProt P08581); test: Kinase inhibition, 33P transfer to plate-bound substrate: Met-1
T1 construct: Kinases are expressed as either kinase domains or full-length constructs; made in house
Source text: (§1) The inhibitor compounds described herein are screened in the following manner. Kinases suitable for use in the following protocol to determine kinase activity of the compounds described herein include, but are not limited to: Lck, Lyn, Src, Fyn, Syk, Zap-70, Itk, Tec, Btk, EGFR, ErbB2, Kdr, Flt-1, Flt-3, Tek, c-Met, InsR, and AKT.
(§2) Kinases are expressed as either kinase domains or full-length constructs fused to glutathione S-transferase (GST) or polyHistidine tagged fusion proteins in either E. coli or Baculovirus-High Five expression systems. They are purified to near homogeneity by affinity chromatography essentially as previously described (Lehr et al., 1996; Gish et al., 1995). In some instances, kinases are co-expressed or mixed with purified or partially purified regulatory polypeptides prior to measurement of activity.
(§3) Kinase activity and inhibition are measured essentially by established protocols (Braunwalder et al., 1996). Briefly, The transfer of ^33PO4 from ATP to the synthetic substrates poly(Glu, Tyr) 4:1 or poly(Arg, Ser) 3:1 attached to the bioactive surface of microtiter plates serves as the basis to evaluate enzyme activity. After an incubation period, the amount of phosphate transferred is measured by first washing the plate with 0.5% phosphoric acid, adding liquid scintillant, and then counting in a liquid scintillation detector. The IC50 is determined by the concentration of compound that causes a 50% reduction in the amount of ^33P incorporated onto the substrate bound to the plate.

Lck-2 = target: T2, Lck-2 (Homo sapiens, UniProt P06239); test: Kinase inhibition, 33P transfer to plate-bound substrate: Lck-2
T2 construct: Kinases are expressed as either kinase domains or full-length constructs; made in house
Source text: as §1, §2, §3

ErbB2-1 = target: T3, ErbB2-1 (Homo sapiens, UniProt P04626); test: Kinase inhibition, 33P transfer to plate-bound substrate: ErbB2-1
T3 construct: Kinases are expressed as either kinase domains or full-length constructs; made in house
Source text: as §1, §2, §3

ErbB4-1 = target: T4, ErbB4-1 (Homo sapiens, UniProt Q15303); test: Kinase inhibition, 33P transfer to plate-bound substrate: ErbB4-1
T4 construct: Kinases are expressed as either kinase domains or full-length constructs; made in house
Source text: as §1, §2, §3

Fyn-1 = target: T5, Fyn-1 (Homo sapiens, UniProt P06241); test: Kinase inhibition, 33P transfer to plate-bound substrate: Fyn-1
T5 construct: Kinases are expressed as either kinase domains or full-length constructs; made in house
T5 sequence (P06241 whole entry, the tested form may be a part): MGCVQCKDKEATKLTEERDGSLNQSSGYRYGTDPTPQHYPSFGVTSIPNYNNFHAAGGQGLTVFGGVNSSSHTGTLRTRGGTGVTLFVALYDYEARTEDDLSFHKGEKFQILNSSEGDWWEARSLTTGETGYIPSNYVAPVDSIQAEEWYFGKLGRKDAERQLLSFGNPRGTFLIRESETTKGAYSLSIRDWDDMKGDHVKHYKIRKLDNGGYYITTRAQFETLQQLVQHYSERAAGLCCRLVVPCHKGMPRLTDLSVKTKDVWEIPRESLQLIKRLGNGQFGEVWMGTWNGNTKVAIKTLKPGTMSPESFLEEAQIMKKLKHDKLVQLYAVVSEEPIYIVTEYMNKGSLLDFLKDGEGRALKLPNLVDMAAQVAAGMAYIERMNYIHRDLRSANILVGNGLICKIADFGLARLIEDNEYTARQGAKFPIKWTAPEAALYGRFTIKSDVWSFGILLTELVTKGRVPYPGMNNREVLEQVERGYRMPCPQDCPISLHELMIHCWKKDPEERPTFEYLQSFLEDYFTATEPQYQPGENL
Source text: as §1, §2, §3

Lck-1 = target: T6, Lck-1 (Homo sapiens, UniProt P06239); test: Kinase inhibition, 33P transfer to plate-bound substrate: Lck-1
T6 construct: Kinases are expressed as either kinase domains or full-length constructs; made in house
Source text: as §1, §2, §3

Zap-1 = target: T7, Zap-1 (Homo sapiens, UniProt P43403); test: Kinase inhibition, 33P transfer to plate-bound substrate: Zap-1
T7 construct: Kinases are expressed as either kinase domains or full-length constructs; made in house
T7 sequence (P43403 1-619): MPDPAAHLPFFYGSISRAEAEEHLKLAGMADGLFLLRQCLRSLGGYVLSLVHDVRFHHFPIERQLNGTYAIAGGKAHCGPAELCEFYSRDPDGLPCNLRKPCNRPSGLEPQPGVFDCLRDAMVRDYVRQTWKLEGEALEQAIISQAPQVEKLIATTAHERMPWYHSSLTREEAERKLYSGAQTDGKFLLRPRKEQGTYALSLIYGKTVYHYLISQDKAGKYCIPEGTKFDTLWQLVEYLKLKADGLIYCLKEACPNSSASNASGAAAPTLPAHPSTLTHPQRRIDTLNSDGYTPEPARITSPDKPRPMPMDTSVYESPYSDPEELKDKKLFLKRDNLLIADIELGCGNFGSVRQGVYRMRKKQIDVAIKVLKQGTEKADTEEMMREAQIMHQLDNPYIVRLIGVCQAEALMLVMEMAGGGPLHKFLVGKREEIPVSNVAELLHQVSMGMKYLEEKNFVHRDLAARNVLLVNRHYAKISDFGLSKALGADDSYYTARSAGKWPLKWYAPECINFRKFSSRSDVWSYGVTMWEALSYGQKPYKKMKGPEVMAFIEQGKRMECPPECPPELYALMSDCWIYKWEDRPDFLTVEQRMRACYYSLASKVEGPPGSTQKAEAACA
Source text: as §1, §2, §3

Akt3-1 = target: T8, Akt3-1 (Homo sapiens, UniProt Q9Y243); test: Kinase inhibition, 33P transfer to plate-bound substrate: Akt3-1
T8 construct: Kinases are expressed as either kinase domains or full-length constructs; made in house
T8 sequence (Q9Y243 whole entry, the tested form may be a part): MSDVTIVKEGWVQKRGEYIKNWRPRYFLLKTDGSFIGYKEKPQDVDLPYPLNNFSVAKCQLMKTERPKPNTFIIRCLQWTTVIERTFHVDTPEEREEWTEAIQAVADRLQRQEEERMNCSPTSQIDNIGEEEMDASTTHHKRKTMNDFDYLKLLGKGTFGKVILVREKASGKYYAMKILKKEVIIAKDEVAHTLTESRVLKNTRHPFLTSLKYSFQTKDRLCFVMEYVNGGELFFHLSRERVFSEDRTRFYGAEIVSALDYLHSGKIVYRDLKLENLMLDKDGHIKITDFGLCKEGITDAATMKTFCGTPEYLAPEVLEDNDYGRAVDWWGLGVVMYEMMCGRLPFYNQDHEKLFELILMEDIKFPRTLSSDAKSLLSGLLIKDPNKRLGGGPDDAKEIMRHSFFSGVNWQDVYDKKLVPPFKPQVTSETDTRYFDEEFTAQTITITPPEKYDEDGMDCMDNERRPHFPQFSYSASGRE
Source text: as §1, §2, §3

IGFR-1 = target: T9, IGFR-1 (Homo sapiens, UniProt P08069); test: Kinase inhibition, 33P transfer to plate-bound substrate: IGFR-1
T9 construct: Kinases are expressed as either kinase domains or full-length constructs; made in house
Source text: as §1, §2, §3

InsR-1 = target: T10, InsR-1 (Homo sapiens, UniProt P06213); test: Kinase inhibition, 33P transfer to plate-bound substrate: InsR-1
T10 construct: Kinases are expressed as either kinase domains or full-length constructs; made in house
Source text: as §1, §2, §3

KDR-1 = target: T11, KDR-1 (Homo sapiens, UniProt P35968); test: Kinase inhibition, 33P transfer to plate-bound substrate: KDR-1
T11 construct: Kinases are expressed as either kinase domains or full-length constructs; made in house
Source text: as §1, §2, §3

Ret-1 = target: T12, Ret-1 (Homo sapiens, UniProt P07949); test: Kinase inhibition, 33P transfer to plate-bound substrate: Ret-1
T12 construct: Kinases are expressed as either kinase domains or full-length constructs; made in house
Source text: as §1, §2, §3

Lyn-1 = target: T13, Lyn-1 (Homo sapiens, UniProt P07948); test: Kinase inhibition, 33P transfer to plate-bound substrate: Lyn-1
T13 construct: Kinases are expressed as either kinase domains or full-length constructs; made in house
Source text: as §1, §2, §3

Itk-1 = target: T14, Itk-1 (Homo sapiens, UniProt Q08881); test: Kinase inhibition, 33P transfer to plate-bound substrate: Itk-1
T14 construct: Kinases are expressed as either kinase domains or full-length constructs; made in house
T14 sequence (Q08881 1-620): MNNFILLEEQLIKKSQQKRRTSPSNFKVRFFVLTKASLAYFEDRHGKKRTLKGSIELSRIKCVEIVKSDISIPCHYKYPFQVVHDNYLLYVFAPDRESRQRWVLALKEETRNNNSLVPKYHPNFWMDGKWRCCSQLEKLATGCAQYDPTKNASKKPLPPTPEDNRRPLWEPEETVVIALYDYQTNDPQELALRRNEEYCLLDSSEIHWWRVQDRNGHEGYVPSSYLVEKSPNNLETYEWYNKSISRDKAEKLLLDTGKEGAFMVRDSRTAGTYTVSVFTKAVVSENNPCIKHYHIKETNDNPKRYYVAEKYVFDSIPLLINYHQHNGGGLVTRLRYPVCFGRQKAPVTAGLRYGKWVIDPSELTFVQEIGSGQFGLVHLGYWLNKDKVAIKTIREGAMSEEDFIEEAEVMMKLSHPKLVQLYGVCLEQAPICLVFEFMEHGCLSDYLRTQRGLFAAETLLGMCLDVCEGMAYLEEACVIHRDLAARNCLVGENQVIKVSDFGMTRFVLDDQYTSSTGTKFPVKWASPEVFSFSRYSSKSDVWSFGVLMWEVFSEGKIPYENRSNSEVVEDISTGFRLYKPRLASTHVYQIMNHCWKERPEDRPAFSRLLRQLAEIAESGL
Source text: as §1, §2, §3

Tek-1 = target: T15, Tek-1 (Homo sapiens, UniProt Q02763); test: Kinase inhibition, 33P transfer to plate-bound substrate: Tek-1
T15 construct: Kinases are expressed as either kinase domains or full-length constructs; made in house
Source text: as §1, §2, §3

Flt1-1 = target: T16, Flt1-1 (Homo sapiens, UniProt P17948); test: Kinase inhibition, 33P transfer to plate-bound substrate: Flt1-1
T16 construct: Kinases are expressed as either kinase domains or full-length constructs; made in house
Source text: as §1, §2, §3

Hck-1 = target: T17, Hck-1 (Homo sapiens, UniProt P08631); test: Kinase inhibition, 33P transfer to plate-bound substrate: Hck-1
T17 construct: Kinases are expressed as either kinase domains or full-length constructs; made in house
Source text: as §1, §2
as §3, with “The IC50 is determined by the concentration of compound that causes a 50% reduction in the amount of ^33P incorporated onto the substrate bound to the plate.” left out

EGFR-1 = target: T18, EGFR-1 (Homo sapiens, UniProt P00533); test: Kinase inhibition, 33P transfer to plate-bound substrate: EGFR-1
T18 construct: Kinases are expressed as either kinase domains or full-length constructs; made in house
T18 sequence (P00533 25-1210): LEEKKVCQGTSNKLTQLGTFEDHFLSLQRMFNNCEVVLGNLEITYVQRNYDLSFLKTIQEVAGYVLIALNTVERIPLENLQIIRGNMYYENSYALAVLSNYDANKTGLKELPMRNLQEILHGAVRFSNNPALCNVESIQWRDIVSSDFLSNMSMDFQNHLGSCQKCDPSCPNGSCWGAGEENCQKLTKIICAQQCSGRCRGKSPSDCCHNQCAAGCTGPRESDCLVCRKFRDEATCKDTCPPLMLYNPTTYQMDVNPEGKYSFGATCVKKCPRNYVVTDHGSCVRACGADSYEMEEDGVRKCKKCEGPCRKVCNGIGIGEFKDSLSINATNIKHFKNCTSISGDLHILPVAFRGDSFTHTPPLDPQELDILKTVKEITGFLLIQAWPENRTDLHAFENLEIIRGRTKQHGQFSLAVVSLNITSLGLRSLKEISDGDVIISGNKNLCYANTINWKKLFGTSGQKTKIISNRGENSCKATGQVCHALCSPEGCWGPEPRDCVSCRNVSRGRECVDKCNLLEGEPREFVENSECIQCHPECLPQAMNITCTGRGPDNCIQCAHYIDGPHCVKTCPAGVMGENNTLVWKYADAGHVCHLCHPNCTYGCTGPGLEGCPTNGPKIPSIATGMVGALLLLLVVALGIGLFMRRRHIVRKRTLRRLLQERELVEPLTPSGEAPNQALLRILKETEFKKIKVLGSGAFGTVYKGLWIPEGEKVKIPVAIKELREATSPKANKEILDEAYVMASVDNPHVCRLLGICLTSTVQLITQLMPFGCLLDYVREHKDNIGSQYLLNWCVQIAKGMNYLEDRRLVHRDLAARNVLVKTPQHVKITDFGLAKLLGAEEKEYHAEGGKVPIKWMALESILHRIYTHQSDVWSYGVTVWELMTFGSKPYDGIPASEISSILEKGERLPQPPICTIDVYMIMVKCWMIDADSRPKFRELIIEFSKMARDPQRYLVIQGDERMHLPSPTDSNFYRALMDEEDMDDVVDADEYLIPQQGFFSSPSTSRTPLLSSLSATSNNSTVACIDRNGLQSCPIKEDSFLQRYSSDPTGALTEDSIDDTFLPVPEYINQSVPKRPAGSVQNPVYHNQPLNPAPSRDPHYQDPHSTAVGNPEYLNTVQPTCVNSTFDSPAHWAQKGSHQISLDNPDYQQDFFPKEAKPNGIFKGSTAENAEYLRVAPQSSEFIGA
Source text: as §1, §2, §3

FGFR1-1 = target: T19, FGFR1-1 (Homo sapiens, UniProt P11362); test: Kinase inhibition, 33P transfer to plate-bound substrate: FGFR1-1
T19 construct: Kinases are expressed as either kinase domains or full-length constructs; made in house
Source text: as §1, §2, §3

PDGFRB = target: T20, PDGFRB (Homo sapiens, UniProt P09619); test: Kinase inhibition, 33P transfer to plate-bound substrate: PDGFRB
T20 construct: Kinases are expressed as either kinase domains or full-length constructs; made in house
T20 sequence (P09619 33-1106, species assumed): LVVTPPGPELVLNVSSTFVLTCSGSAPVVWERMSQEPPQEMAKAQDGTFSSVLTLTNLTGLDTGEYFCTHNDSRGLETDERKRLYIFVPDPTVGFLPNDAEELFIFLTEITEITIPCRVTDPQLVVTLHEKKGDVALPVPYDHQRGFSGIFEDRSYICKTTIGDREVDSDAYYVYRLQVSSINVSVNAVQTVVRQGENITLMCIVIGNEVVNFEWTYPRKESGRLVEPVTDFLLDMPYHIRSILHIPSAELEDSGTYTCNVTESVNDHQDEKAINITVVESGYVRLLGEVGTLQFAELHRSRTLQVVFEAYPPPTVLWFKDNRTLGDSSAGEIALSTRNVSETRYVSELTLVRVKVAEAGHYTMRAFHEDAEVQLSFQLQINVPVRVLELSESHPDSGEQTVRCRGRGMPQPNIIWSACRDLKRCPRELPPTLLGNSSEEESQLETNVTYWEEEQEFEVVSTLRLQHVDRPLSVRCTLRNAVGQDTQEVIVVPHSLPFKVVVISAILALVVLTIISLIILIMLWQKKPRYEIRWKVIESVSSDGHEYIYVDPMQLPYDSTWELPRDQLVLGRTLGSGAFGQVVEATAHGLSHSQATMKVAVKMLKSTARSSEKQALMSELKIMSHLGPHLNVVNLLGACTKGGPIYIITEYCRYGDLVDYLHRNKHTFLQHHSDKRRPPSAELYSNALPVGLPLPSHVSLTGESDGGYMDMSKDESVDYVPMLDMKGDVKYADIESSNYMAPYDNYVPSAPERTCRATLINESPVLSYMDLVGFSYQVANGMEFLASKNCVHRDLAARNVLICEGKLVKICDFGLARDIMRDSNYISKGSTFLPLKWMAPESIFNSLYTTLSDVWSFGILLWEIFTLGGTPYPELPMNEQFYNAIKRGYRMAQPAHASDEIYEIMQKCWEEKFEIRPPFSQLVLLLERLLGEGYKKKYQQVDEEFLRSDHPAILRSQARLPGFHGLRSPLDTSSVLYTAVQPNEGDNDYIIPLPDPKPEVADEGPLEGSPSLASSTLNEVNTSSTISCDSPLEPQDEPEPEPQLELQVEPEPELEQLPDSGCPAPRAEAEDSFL
Source text: as §1, §2, §3

Src-1 = target: T21, Src-1 (Homo sapiens, UniProt P12931); test: Kinase inhibition, 33P transfer to plate-bound substrate: Src-1
T21 construct: Kinases are expressed as either kinase domains or full-length constructs; made in house
Source text: as §1, §2, §3

T1 sequence (P08581 25-1390): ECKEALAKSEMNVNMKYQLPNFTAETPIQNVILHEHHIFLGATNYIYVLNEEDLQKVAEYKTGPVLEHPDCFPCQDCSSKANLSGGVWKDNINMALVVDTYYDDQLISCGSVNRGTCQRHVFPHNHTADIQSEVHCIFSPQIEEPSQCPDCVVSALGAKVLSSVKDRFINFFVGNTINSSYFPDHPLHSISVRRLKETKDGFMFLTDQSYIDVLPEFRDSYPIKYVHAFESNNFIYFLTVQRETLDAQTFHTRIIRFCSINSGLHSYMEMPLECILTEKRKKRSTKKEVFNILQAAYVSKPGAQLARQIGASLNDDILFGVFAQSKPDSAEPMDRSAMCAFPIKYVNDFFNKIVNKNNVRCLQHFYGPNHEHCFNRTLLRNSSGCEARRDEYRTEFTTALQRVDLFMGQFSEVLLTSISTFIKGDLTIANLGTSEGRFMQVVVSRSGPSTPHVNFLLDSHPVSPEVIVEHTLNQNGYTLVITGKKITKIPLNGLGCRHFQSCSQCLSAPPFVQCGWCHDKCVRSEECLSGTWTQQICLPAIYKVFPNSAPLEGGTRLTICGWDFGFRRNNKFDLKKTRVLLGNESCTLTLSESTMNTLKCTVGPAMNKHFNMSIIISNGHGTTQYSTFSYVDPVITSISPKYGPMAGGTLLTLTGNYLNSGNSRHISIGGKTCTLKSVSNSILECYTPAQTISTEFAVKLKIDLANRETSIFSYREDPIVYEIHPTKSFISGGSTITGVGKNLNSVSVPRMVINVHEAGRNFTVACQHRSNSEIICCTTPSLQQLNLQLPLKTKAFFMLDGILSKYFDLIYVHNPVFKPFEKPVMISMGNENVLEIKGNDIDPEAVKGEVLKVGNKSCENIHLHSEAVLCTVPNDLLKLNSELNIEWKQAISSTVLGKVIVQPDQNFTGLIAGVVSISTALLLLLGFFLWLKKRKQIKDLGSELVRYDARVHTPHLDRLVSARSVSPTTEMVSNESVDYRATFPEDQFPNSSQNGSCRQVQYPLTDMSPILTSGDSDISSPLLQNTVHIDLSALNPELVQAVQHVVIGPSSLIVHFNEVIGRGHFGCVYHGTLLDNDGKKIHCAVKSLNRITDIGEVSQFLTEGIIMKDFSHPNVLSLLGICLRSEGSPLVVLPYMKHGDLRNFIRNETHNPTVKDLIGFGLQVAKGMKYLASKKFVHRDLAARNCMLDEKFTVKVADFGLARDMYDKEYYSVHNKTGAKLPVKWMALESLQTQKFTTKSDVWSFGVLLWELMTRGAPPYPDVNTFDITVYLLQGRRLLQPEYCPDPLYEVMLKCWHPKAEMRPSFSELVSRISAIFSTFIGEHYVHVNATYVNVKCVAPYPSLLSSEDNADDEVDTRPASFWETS

IC50 (Met-1): 1.5 to 5 µM
IC50 (Lck-2): 1.5 to 5 µM
IC50 (ErbB2-1): ≥ 10 µM
IC50 (ErbB4-1): ≥ 10 µM
IC50 (Fyn-1): 5 to 10 µM
IC50 (Lck-1): 1.5 to 5 µM
IC50 (Zap-1): 1.5 to 5 µM
IC50 (Akt3-1): ≥ 10 µM
IC50 (IGFR-1): < 1.5 µM
IC50 (InsR-1): 1.5 to 5 µM
IC50 (KDR-1): < 1.5 µM
IC50 (Ret-1): < 1.5 µM
IC50 (Lyn-1): 1.5 to 5 µM
IC50 (Itk-1): ≥ 10 µM
IC50 (Tek-1): 5 to 10 µM
IC50 (Flt1-1): < 1.5 µM
IC50 (Hck-1): ≥ 10 µM
IC50 (EGFR-1): ≥ 10 µM
IC50 (FGFR1-1): < 1.5 µM
IC50 (PDGFRB): < 1.5 µM
IC50 (Src-1): 5 to 10 µM
Compound: COc1cc(Nc2nccc(-n3c(=O)[nH]c4ccccc43)n2)cc(OC)c1OC [Compound 3]
